This note sets out measurements from PubChem BioAssay (NCI).

Test systems include CAKI-1 renal; M14 melanoma; OVCAR-3 ovarian; SF-295 CNS; SK-MEL-28 melanoma; SK-OV-3 ovarian; BT-549 breast; MCF7 breast; MDA-MB-435; MDA-MB-231 breast.
Holding throughout (assay): NCI tumour cell line growth inhibition, 48 h

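96-well plates; 48 h exposure; 5 concentrations. Endpoints by linear interpolation between flanking doses. Not reached: highest tested concentration assigned. Here, GI50 denotes the concentration required for 50% inhibition of growth. TGI: concentration producing complete growth inhibition.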

Turning to `C=CCN=C1N=C(CC(=O)OCC)CS1`, the TGI in the assay on CAKI-1 renal, in the assay with M14 melanoma, in the assay with OVCAR-3 ovarian, with SF-295 CNS, in the assay on SK-MEL-28 melanoma and in the assay with SK-OV-3 ovarian was over 100 µM throughout.

Consider `O=C(Nc1nccs1)c1cc(C2=CC=CC([N+](=O)[O-])C=C2)nc(=S)[nH]1` (stereo unspecified), for which the TGI in the assay with CAKI-1 renal, with M14 melanoma, in the assay on OVCAR-3 ovarian, in the assay on SF-295 CNS, in the assay with SK-MEL-28 melanoma and in the assay with SK-OV-3 ovarian was over 100 µM in each case.

As for `COc1cc2c(cc1OC)[C@@H](C(O)c1ccccc1)NCC2` (stereo partly specified), the TGI with CAKI-1 renal, in the assay on M14 melanoma, in the assay with OVCAR-3 ovarian, with SF-295 CNS and with SK-OV-3 ovarian was over 100 µM in each case.

Regarding `Cc1cc(S(=O)(=O)NC#N)c(S/C(=N\Nc2ccc([N+](=O)[O-])cc2)c2ccccc2)cc1Cl`, the GI50 in the assay on BT-549 breast was 15.7 µM; in the assay with CAKI-1 renal it was 21.1 µM; in the assay with M14 melanoma it was 18.1 µM; with MCF7 breast it was 14.7 µM; in the assay with MDA-MB-435, 32.7 µM; with OVCAR-3 ovarian it was 14.2 µM. Moreover, the figures for the GI50 in the assay with SF-295 CNS, in the assay on SK-MEL-28 melanoma and in the assay on SK-OV-3 ovarian were 15.9 µM, 17.2 µM and over 100 µM, respectively. Moreover, the TGI in the assay with BT-549 breast was 36.7 µM; in the assay with CAKI-1 renal it was 45.8 µM; in the assay with M14 melanoma, 37.3 µM; with MCF7 breast, 28.3 µM; in the assay with MDA-MB-435, over 100 µM; with OVCAR-3 ovarian it was 30.5 µM. For the same compound, the TGI with SF-295 CNS is 34 µM; with SK-MEL-28 melanoma, 37.4 µM; in the assay on SK-OV-3 ovarian it was over 100 µM.

As to `Clc1cc(Cl)cc(N2N=C(c3cccc(Nc4ccncc4)c3)CC2c2ccc(Br)cc2)c1` (stereo unspecified), the GI50 was 1.94 µM in the assay on BT-549 breast; 1.54 µM in the assay on CAKI-1 renal; 1.8 µM with M14 melanoma; 1.51 µM in the assay with MDA-MB-231 breast; 1.61 µM in the assay with MDA-MB-435; 1.72 µM with OVCAR-3 ovarian. Also, the GI50 in the assay with SF-295 CNS is 1.79 µM; in the assay with SK-MEL-28 melanoma, 1.83 µM; in the assay on SK-OV-3 ovarian, 2.01 µM. Also, the TGI in the assay on BT-549 breast stood at 3.72 µM; in the assay on CAKI-1 renal it was 2.91 µM; in the assay with M14 melanoma, 3.63 µM; in the assay on MDA-MB-231 breast, 2.91 µM; in the assay with MDA-MB-435, 3 µM; in the assay with OVCAR-3 ovarian, 3.21 µM. In addition, the TGI in the assay with SF-295 CNS amounted to 3.2 µM; in the assay on SK-MEL-28 melanoma, 3.37 µM; in the assay with SK-OV-3 ovarian it was 4.11 µM.

As to `O=Cc1[nH]c2ccccc2c1Br`, the TGI in the assay with CAKI-1 renal was over 100 µM; with M14 melanoma, 46.3 µM; with OVCAR-3 ovarian, 56.5 µM; with SF-295 CNS, over 100 µM; with SK-MEL-28 melanoma, 59.4 µM; with SK-OV-3 ovarian, 44.9 µM.

Regarding `COc1ccc(/C=C2\CNC/C(=C\c3ccc(OC)cc3)C2=O)cc1`, the TGI was 81.2 µM in the assay with CAKI-1 renal; over 100 µM in the assay with M14 melanoma; over 100 µM in the assay on OVCAR-3 ovarian; over 100 µM in the assay with SF-295 CNS; over 100 µM with SK-MEL-28 melanoma; over 100 µM with SK-OV-3 ovarian.

Regarding `COc1ccc(C=NC23CC4CC(CC(C4)C2)C3)cc1`, the TGI in the assay on CAKI-1 renal, with M14 melanoma, in the assay with OVCAR-3 ovarian, with SF-295 CNS, in the assay with SK-MEL-28 melanoma and with SK-OV-3 ovarian was over 100 µM each time.

As to `O=C(c1ccc(NCN2C(=O)CCC2=O)cc1)c1ccc(NCN2C(=O)CCC2=O)cc1`, the TGI in the assay with M14 melanoma, in the assay on OVCAR-3 ovarian, with SF-295 CNS and in the assay on SK-MEL-28 melanoma was over 100 µM throughout.

`Cc1ccc(C(=O)N/N=C/c2cccc(Oc3ccccc3)c2)cn1`: the GI50 in the assay with BT-549 breast was 5.37 µM; with CAKI-1 renal, 4.41 µM; in the assay with M14 melanoma, 6.08 µM; in the assay on MCF7 breast, 3.48 µM; in the assay with MDA-MB-231 breast it was 22.9 µM; with OVCAR-3 ovarian, 5.96 µM. Moreover, the GI50 in the assay on SF-295 CNS was 3.36 µM; with SK-MEL-28 melanoma, 27.3 µM; in the assay with SK-OV-3 ovarian it was 13 µM. Besides, the TGI in the assay on BT-549 breast is over 55.6 µM; in the assay with CAKI-1 renal, over 100 µM; with M14 melanoma it was over 100 µM; in the assay with MCF7 breast, over 100 µM; with MDA-MB-231 breast it was over 100 µM; in the assay with OVCAR-3 ovarian it was over 100 µM. The values for the TGI in the assay on SF-295 CNS, in the assay on SK-MEL-28 melanoma and with SK-OV-3 ovarian were over 36.5 µM, over 100 µM and over 100 µM, respectively.

On to `O=C(O)c1ccc([N+](=O)[O-])c2c(=O)c3ccccc3[nH]c12`, for which the TGI in the assay on CAKI-1 renal, in the assay on M14 melanoma, in the assay on SF-295 CNS and in the assay on SK-OV-3 ovarian was over 100 µM each time.

On to `COc1ccc(C(=O)/C=C/c2cc(C(=O)c3cc(OC)c(OC)c(OC)c3)ccc2OC)cc1`, for which the GI50 is 2.85 µM in the assay with BT-549 breast; 4.92 µM in the assay on M14 melanoma; 3.05 µM in the assay on MCF7 breast; 3.69 µM with MDA-MB-231 breast; 6.27 µM with SF-295 CNS; over 100 µM with SK-OV-3 ovarian. Further, the TGI with BT-549 breast, with M14 melanoma, with MCF7 breast, with MDA-MB-231 breast, in the assay with SF-295 CNS and with SK-OV-3 ovarian was over 100 µM throughout.

As to `CC(=O)OC[C@@H]1[C@H]2CC(=O)O[C@H]2C[C@H]1OC(C)=O`, the TGI in the assay on CAKI-1 renal, in the assay with M14 melanoma, in the assay on OVCAR-3 ovarian, in the assay on SF-295 CNS, in the assay on SK-MEL-28 melanoma and in the assay on SK-OV-3 ovarian was over 100 µM each time.

In the case of `CC(C)(C)C(=O)C(c1ccc(-c2cscn2)cc1)c1ccc(-c2cscn2)cc1`, the TGI in the assay with CAKI-1 renal was over 73.2 µM; in the assay on M14 melanoma, over 100 µM; in the assay on OVCAR-3 ovarian, over 84.7 µM; in the assay with SF-295 CNS, 84.5 µM; in the assay on SK-MEL-28 melanoma, over 100 µM; in the assay with SK-OV-3 ovarian, 65.3 µM.
